Reference: patent publication US20240182531A1, “KV1.3 Blockers” (priority 2021, published 2024)
“And” between values parts separate entries of the source, which are not always exact repeats. Identical values can stand only once. Like-named read-outs stand apart in the source and are kept apart here. Where a SMILES comes first, the peptide text is derived from it. Bridges are numbered along the chain shown (N, C = ends). [ ]: non-standard residue; d: D form. Nle = CCCC[C@H](N)C(=O)O

Experiments:
human Kv1.6 = molecular target: T1, human Kv1.6 (Homo sapiens, UniProt P17658); experiment: cell-based; details: ratio of patch clamp IC50 values
T1 construct: expressed in transfected cells; host or cells: CHO

[1] = system: Human peripheral blood mononuclear cells (PBMCs); format: cell-based; details: geometric mean, at least 6 replicates, Example 5b; read-out: anti-CD3 PBMC/IL-2 IC50
Experimental: Human peripheral blood mononuclear cells (PBMCs) were used to assess the effects of Kv1.3 blocker reference compounds on T-cell activation as determined by IL-2 release after stimulation with anti-CD3.
Human PBMCs were obtained from Precision for Medicine (Frederick, MD). Cells from 5 donors were used. Plate-bound anti-CD3 was used to stimulate bulk T cells in the PBMC preparations. Briefly, 96-well plates were coated with anti-CD3 antibody for app. 16 hours at 5° C., using 50 μl of a 1 μg/ml anti-CD3 solution diluted in PBS. Thereafter the plates were washed twice.
Kv1.3 blockers were subsequently diluted in medium (RPMI 1640 with Glutamax-I containing, 10% v/v Fetal Bovine Serum, 1% v/v penicillin-streptomycin Solution) and added in a volume of 50 μl. The compounds indicated in Table 8b were used at concentrations ranging from 0.3 pM to 1000 nM (half log dilutions, starting concentrations varying).
Finally, 50.000 PBMCs in the same medium were added to each well in a volume of 50 μl, giving a final volume of 100 μl per well. The plates were incubated for 20-24 hours in a 37° C./5% CO2 incubator. After centrifugation of the plates, 25 μl supernatant was transferred to IL-2 detection plates (MSD Human IL-2 Tissue Culture Kit, cat #K151AHB-2) and IL-2 was measures as described by the manufacturer (Meso Scale Discovery, Rockville, Maryland, USA).
All values derive from at least 6 replicates.

human Kv1.2 = molecular target: T2, human Kv1.2 (Homo sapiens, UniProt P16389); experiment: cell-based; details: ratio of patch clamp IC50 values
T2 construct: expressed in transfected cells; host or cells: CHO

human Kv1.1 = molecular target: T3, human Kv1.1 (Homo sapiens, UniProt Q09470); experiment: cell-based; details: ratio of patch clamp IC50 values
T3 construct: expressed in transfected cells; host or cells: CHO

Rat whole blood = Rat whole blood (Rattus norvegicus, UniProt P15384); format: cell-based; details: IL-17A release, thapsigargin, 24 Hr, at least 2 replicates
[2] = system: KLH ear inflammation model in rats; format: in vivo, rat; details: +/− SD
human Kv1.3 = molecular target: T4, human Kv1.3 (Homo sapiens, UniProt P22001); experiment: cell-based; details: CHO cells, QPatch whole-cell; read-out: Potency IC50 Kv1.3
T4 construct: expressed in transfected cells; host or cells: CHO

[3] = 50 nmol/kg SC 24 hrs prior to KLH ear challenge
[4] = 70 nmol/kg SC 24 hrs prior to KLH ear challenge

T3 sequence (Q09470 whole entry): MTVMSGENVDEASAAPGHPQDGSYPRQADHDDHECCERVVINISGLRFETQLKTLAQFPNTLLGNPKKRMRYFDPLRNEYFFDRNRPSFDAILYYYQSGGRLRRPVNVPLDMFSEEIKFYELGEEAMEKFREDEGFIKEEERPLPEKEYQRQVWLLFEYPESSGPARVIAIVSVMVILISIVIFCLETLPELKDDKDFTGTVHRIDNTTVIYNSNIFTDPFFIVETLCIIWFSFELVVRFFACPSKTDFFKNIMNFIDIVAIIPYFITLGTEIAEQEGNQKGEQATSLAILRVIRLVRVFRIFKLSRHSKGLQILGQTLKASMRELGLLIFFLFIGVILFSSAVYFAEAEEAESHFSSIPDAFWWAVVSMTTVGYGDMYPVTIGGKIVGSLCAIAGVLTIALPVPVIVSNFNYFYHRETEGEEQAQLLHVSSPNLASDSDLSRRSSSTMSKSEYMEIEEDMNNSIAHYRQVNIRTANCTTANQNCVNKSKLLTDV
T1 sequence (P17658 whole entry): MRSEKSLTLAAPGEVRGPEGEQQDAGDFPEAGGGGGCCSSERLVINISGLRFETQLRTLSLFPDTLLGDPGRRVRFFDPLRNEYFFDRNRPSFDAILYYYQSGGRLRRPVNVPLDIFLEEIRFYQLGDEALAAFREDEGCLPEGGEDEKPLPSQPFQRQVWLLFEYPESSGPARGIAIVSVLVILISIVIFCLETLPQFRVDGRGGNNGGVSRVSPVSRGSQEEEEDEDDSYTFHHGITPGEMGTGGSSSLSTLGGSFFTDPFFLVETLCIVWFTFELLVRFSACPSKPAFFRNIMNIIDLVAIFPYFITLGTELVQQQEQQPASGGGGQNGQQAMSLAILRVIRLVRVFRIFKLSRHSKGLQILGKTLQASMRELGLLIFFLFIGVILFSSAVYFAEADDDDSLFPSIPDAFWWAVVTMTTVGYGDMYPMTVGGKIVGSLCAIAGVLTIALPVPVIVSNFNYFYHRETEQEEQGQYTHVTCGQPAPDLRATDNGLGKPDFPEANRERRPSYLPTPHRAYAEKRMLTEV
Sequence of Rat whole blood (P15384 whole entry): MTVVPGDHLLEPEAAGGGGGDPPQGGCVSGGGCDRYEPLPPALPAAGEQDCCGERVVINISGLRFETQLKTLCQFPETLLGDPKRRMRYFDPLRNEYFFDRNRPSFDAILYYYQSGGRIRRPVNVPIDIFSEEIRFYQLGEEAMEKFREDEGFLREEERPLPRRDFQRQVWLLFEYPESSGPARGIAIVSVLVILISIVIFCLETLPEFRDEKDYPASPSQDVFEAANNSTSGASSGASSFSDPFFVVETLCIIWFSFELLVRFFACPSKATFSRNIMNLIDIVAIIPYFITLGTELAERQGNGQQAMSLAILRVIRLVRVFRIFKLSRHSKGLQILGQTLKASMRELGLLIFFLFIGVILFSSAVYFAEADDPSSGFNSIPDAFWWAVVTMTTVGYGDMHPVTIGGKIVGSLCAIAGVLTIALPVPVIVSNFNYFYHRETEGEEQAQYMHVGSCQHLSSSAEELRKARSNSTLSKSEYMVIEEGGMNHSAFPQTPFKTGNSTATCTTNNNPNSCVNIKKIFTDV
T2 sequence (P16389 whole entry): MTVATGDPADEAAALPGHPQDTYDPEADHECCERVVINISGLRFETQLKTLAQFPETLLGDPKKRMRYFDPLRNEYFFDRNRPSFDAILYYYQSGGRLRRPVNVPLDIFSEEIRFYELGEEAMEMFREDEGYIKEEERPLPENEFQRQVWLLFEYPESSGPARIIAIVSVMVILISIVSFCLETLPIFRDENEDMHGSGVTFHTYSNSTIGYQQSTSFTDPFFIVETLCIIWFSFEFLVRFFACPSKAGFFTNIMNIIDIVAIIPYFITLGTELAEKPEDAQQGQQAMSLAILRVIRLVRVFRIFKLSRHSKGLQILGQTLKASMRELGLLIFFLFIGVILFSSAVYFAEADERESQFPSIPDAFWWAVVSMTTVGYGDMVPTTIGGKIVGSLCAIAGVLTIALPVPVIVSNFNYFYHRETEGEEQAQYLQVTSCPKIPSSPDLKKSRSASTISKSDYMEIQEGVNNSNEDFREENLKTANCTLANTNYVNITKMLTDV
T4 sequence (P22001 whole entry): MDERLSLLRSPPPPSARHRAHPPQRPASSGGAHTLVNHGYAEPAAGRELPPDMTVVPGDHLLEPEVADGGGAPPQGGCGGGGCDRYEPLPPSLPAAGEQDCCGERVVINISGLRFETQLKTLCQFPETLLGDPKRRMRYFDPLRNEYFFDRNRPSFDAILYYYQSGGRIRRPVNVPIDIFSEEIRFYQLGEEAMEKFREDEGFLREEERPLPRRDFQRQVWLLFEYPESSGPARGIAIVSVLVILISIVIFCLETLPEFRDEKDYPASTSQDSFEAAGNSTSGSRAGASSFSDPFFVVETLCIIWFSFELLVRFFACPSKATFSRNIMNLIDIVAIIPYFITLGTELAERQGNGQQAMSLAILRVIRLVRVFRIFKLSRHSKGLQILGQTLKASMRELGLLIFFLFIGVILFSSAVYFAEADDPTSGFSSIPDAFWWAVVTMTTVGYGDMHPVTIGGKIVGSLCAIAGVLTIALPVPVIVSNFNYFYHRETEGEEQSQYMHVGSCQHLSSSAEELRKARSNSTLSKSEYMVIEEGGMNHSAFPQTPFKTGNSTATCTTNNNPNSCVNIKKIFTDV

| Compound | Selectivity ratio Kv1.6/Kv1.3 (human Kv1.6) | IC50 [1] | Selectivity ratio Kv1.2/Kv1.3 (human Kv1.2) | Selectivity ratio Kv1.1/Kv1.3 (human Kv1.1) | IC50 (Rat whole blood) | % inhibition of ear thickness (AUC of Δ ear thickness 0-48 hours) [2, 3] | % inhibition of ear thickness (AUC of Δ ear thickness 0-48 hours) [2, 4] | % inhibition of ear thickness (AUC of Δ ear thickness 0-48 hours) ([2]; 100 nmol/kg SC 24 hrs prior to KLH ear challenge) | IC50 (human Kv1.3) |
| --- | --- | --- | --- | --- | --- | --- | --- | --- | --- |
| CCCC[C@@H]1NC(=O)[C@@H]2CSSC[C@H](NC(=O)[C@H](CCCNC(=N)N)NC(=O)[C@H](CCCC)NC(=O)[C@H](CC(=O)O)NC(=O)[C@H](CCCC)NC(=O)[C@@H](N)CC(N)=O)C(=O)N[C@@H](CO)C(=O)N[C@@H](C)C(=O)N[C@@H](CO)C(=O)N[C@@H](C(C)C)C(=O)N[C@@H](CCC(=O)O)C(=O)N[C@H]3CSSC[C@H](NC(=O)[C@H](CCCCN)NC(=O)[C@H](CCCCN)NC(=O)[C@H](CC(N)=O)NC1=O)C(=O)N[C@@H](CCCCN)C(=O)N[C@H](C(=O)N[C@@H](Cc1ccc(O)cc1)C(=O)N1CCC[C@H]1C(=O)N[C@@H](CCCNC(=N)N)C(N)=O)CSSC[C@H](NC(=O)[C@H](CO)NC(=O)[C@H](CCC(N)=O)NC(=O)[C@H](CCCCN)NC3=O)C(=O)N[C@@H](CC(C)C)C(=O)N[C@@H](CCCCN)C(=O)N[C@@H](C)C(=O)N[C@@H]([C@@H](C)CC)C(=O)NCC(=O)N[C@@H](CO)C(=O)N[C@@H]([C@@H](C)CC)C(=O)N[C@@H](Cc1ccccc1)C(=O)NCC(=O)N[C@@H](CCCCN)C(=O)N2 [compound 52] (H-N[Nle]D[Nle]RCSASVECKQSCLKAIGSIFGKC[Nle]NKKCKCYPR-NH2; disulfide 6-27, 12-32, 16-34) | >8200 | 0.07 nM | >8200 | >8200 | 0.63 nM | – | – | – | – |
| CC[C@H](C)[C@@H]1NC(=O)[C@H](C)NC(=O)[C@H](CCCCN)NC(=O)[C@H](CC(C)C)NC(=O)[C@@H]2CSSC[C@@H](C(=O)N[C@@H](Cc3ccc(O)cc3)C(=O)N3CCC[C@H]3C(=O)N[C@@H](CCCNC(=N)N)C(=O)O)NC(=O)[C@H](CCCCN)NC(=O)[C@@H]3CSSC[C@H](NC(=O)[C@H](CCC(=O)O)NC(=O)[C@H](C(C)C)NC(=O)[C@H](CO)NC(=O)[C@H](C)NC(=O)[C@H](CO)NC(=O)[C@@H](NC(=O)[C@H](CCCNC(=N)N)NC(=O)[C@H](CCSC)NC(=O)[C@H](CC(=O)O)NC(=O)[C@H](CCSC)NC(=O)[C@@H](N)CC(N)=O)CSSC[C@H](NC(=O)[C@H](CCCCN)NC(=O)CNC(=O)[C@H](Cc4ccccc4)NC(=O)[C@H]([C@@H](C)CC)NC(=O)[C@H](CO)NC(=O)CNC1=O)C(=O)N[C@@H](CCSC)C(=O)N[C@@H](CC(N)=O)C(=O)N[C@@H](CCCCN)C(=O)N[C@@H](CCCCN)C(=O)N3)C(=O)N[C@@H](CCCCN)C(=O)N[C@@H](CCC(N)=O)C(=O)N[C@@H](CCCCN)C(=O)N2 [compound 17] (H-NMDMRCSASVECKQKCLKAIGSIFGKCMNKKCKCYPR-OH; disulfide 6-27, 12-32, 16-34) | >11300 | 0.06 nM | 1540 | >11300 | 1 nM | 37.3 (+/−13.8) % | 38.8 (+/−9.7) % and 25.0 (+/−12.5) % | – | – |
| CCCC[C@H](NC(=O)[C@@H]1CCCN1)C(=O)N[C@@H](CC(=O)O)C(=O)N[C@@H](CCCC)C(=O)N[C@@H](CCCNC(=N)N)C(=O)N[C@H]1CSSC[C@@H]2NC(=O)[C@H](CCCCN)NC(=O)CNC(=O)[C@H](Cc3ccccc3)NC(=O)[C@H]([C@@H](C)CC)NC(=O)[C@H](CO)NC(=O)CNC(=O)[C@H]([C@@H](C)CC)NC(=O)[C@H](C)NC(=O)[C@H](CCCCN)NC(=O)[C@H](CC(C)C)NC(=O)[C@@H]3CSSC[C@@H](C(=O)N[C@@H](Cc4ccc(O)cc4)C(=O)N4CCC[C@H]4C(=O)N[C@@H](CCCNC(=N)N)C(N)=O)NC(=O)[C@H](CCCCN)NC(=O)[C@H](CSSC[C@H](NC(=O)[C@H](CCC(=O)O)NC(=O)[C@H](C(C)C)NC(=O)[C@H](CO)NC(=O)[C@H](C)NC(=O)[C@H](CO)NC1=O)C(=O)N[C@@H](CCCCN)C(=O)N[C@@H](CCC(N)=O)C(=O)N[C@@H](CCCCN)C(=O)N3)NC(=O)[C@H](CCCCN)NC(=O)[C@H](CCCCN)NC(=O)[C@H](CC(N)=O)NC(=O)[C@H](CCCC)NC2=O [compound 45] (H-P[Nle]D[Nle]RCSASVECKQKCLKAIGSIFGKC[Nle]NKKCKCYPR-NH2; disulfide 6-27, 12-32, 16-34) | >17100 | 0.03 nM | 5362 | >17100 | 0.98 nM | 22.2 (+/−11.1) % | 46.9 (+/−10.9) % and 27.7 (+/−11.5) % | 41.9 (+/−12.5) % | – |
| CCCC[C@H](NC(=O)[C@H](CC(=O)O)NC(=O)[C@H](CCCC)NC(=O)[C@@H](N)CO)C(=O)N[C@@H](CCCNC(=N)N)C(=O)N[C@H]1CSSC[C@@H]2NC(=O)[C@H](CCCCN)NC(=O)CNC(=O)[C@H](Cc3ccccc3)NC(=O)[C@H]([C@@H](C)CC)NC(=O)[C@H](CO)NC(=O)CNC(=O)[C@H]([C@@H](C)CC)NC(=O)[C@H](C)NC(=O)[C@H](CCCCN)NC(=O)[C@H](CC(C)C)NC(=O)[C@@H]3CSSC[C@@H](C(=O)N[C@@H](Cc4ccc(O)cc4)C(=O)N4CCC[C@H]4C(=O)N[C@@H](CCCNC(=N)N)C(N)=O)NC(=O)[C@H](CCCNC(=N)N)NC(=O)[C@H](CSSC[C@H](NC(=O)[C@H](CCC(=O)O)NC(=O)[C@H](C(C)C)NC(=O)[C@H](CO)NC(=O)[C@H](C)NC(=O)[C@H](CO)NC1=O)C(=O)N[C@@H](CCCCN)C(=O)N[C@@H](CCC(N)=O)C(=O)N[C@@H](CCCCN)C(=O)N3)NC(=O)[C@H](CCCCN)NC(=O)[C@H](CCCCN)NC(=O)[C@H](CC(N)=O)NC(=O)[C@H](CCSC)NC2=O [compound 75] (H-S[Nle]D[Nle]RCSASVECKQKCLKAIGSIFGKCMNKKCRCYPR-NH2; disulfide 6-27, 12-32, 16-34) | – | – | – | – | 0.86 nM | – | – | – | 0.13 nM |
| CC[C@H](C)[C@@H]1NC(=O)[C@H](C)NC(=O)[C@H](CCCCN)NC(=O)[C@H](CC(C)C)NC(=O)[C@@H]2CSSC[C@@H](C(=O)N[C@@H](Cc3ccc(O)cc3)C(=O)N3CCC[C@H]3C(=O)N[C@@H](CCCNC(=N)N)C(=O)O)NC(=O)[C@H](CCCCN)NC(=O)[C@@H]3CSSC[C@H](NC(=O)[C@H](CCC(=O)O)NC(=O)[C@H](C(C)C)NC(=O)[C@H](CO)NC(=O)[C@H](C)NC(=O)[C@H](CO)NC(=O)[C@@H](NC(=O)[C@H](CCCNC(=N)N)NC(=O)[C@H](CCSC)NC(=O)[C@H](CC(=O)O)NC(=O)[C@H](CCSC)NC(=O)[C@@H](N)CCC(N)=O)CSSC[C@H](NC(=O)[C@H](CCCCN)NC(=O)CNC(=O)[C@H](Cc4ccccc4)NC(=O)[C@H]([C@@H](C)CC)NC(=O)[C@H](CO)NC(=O)CNC1=O)C(=O)N[C@@H](CCSC)C(=O)N[C@@H](CC(N)=O)C(=O)N[C@@H](CCCCN)C(=O)N[C@@H](CCCCN)C(=O)N3)C(=O)N[C@@H](CCCCN)C(=O)N[C@@H](CCC(N)=O)C(=O)N[C@@H](CCCCN)C(=O)N2 [compound 15] (H-QMDMRCSASVECKQKCLKAIGSIFGKCMNKKCKCYPR-OH; disulfide 6-27, 12-32, 16-34) | >7900 | 0.09 nM | 1364 | >7900 | 0.17 nM | – | – | – | – |
| H-NMDMRCSASVECKQKCLKAIGSIFGKCMNKKCKCYPRRRTA-NH2 (disulfide 6-27, 12-32, 16-34) [compound 28] | 1472 | 0.06 nM | 191 | 4280 | 0.57 nM | – | – | – | – |
| CC[C@H](C)[C@@H]1NC(=O)[C@H](C)NC(=O)[C@H](CCCCN)NC(=O)[C@H](CC(C)C)NC(=O)[C@@H]2CSSC[C@@H](C(=O)N[C@@H](Cc3ccc(O)cc3)C(=O)N3CCC[C@H]3C(=O)N[C@@H](CCCNC(=N)N)C(N)=O)NC(=O)[C@H](CCCCN)NC(=O)[C@@H]3CSSC[C@H](NC(=O)[C@H](CCC(=O)O)NC(=O)[C@H](C(C)C)NC(=O)[C@H](CO)NC(=O)[C@H](C)NC(=O)[C@H](CCCCN)NC(=O)[C@@H](NC(=O)[C@H](CCCNC(=N)N)NC(=O)[C@H](CCSC)NC(=O)[C@H](CC(=O)O)NC(=O)[C@H](CCSC)NC(=O)[C@@H](N)CC(N)=O)CSSC[C@H](NC(=O)[C@H](CCCCN)NC(=O)CNC(=O)[C@H](Cc4ccccc4)NC(=O)[C@H]([C@@H](C)CC)NC(=O)[C@H](CO)NC(=O)CNC1=O)C(=O)N[C@@H](CCSC)C(=O)N[C@@H](CC(N)=O)C(=O)N[C@@H](CCCCN)C(=O)N[C@@H](CCCCN)C(=O)N3)C(=O)N[C@@H](CCCCN)C(=O)N[C@@H](CCC(N)=O)C(=O)N[C@@H](CCCCN)C(=O)N2 [compound 29] (H-NMDMRCKASVECKQKCLKAIGSIFGKCMNKKCKCYPR-NH2; disulfide 6-27, 12-32, 16-34) | 4144 | – | 761 | >34200 | – | – | – | – | 0.09 nM |
